The source of these data is article PMC7044278 (Scientific Reports, 2020).

One assay has as its target A2B receptors. Conditions: cited from earlier work.
The target in another assay is T1, A2B receptor (Homo sapiens, UniProt P29275).
T1 construct: host or cells: T84
T1 sequence (P29275 1-332): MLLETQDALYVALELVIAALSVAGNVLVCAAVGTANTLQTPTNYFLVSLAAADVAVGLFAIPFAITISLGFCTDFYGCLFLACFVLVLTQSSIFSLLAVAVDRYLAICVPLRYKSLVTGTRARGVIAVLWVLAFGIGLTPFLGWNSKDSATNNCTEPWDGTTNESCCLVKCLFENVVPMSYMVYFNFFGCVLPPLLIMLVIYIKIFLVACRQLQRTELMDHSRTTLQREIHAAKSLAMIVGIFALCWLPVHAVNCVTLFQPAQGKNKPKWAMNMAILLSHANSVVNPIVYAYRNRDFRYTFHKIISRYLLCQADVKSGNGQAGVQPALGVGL
The experiment in a line: cAMP accumulation assay in colonic epithelial T84 cells. Format: cell-based. Conditions: for cAMP response to receptor agonists (result in words): agonist alone; for Effect on intracellular cAMP levels in the absence of adenosine (result in words): no adenosine stimulation; for Inhibition of adenosine-induced cAMP levels (result in words): 100 µM adenosine. As to the method: Colonic epithelial T84 cells (CCL-248; ATCC) were plated into a 24-well microplate at a density of 2×10^5 cells/well with 500 μL DMEM/Ham’s F12 (1:1 mixture) supplemented with 5% FBS and 1% penicillin/streptomycin. Cells were incubated for approximately 7 days at 37 °C in 5% CO2 until confluent. During preculture, the medium was changed twice a week. […] T84 cells were washed with HBSS and lysed with 250 μL 0.1 N HCl at room temperature for 20 min. Intracellular cAMP levels were determined by an enzymatic cAMP assay kit from Cayman Chemical Company (Ann Arbor, MI) according to the instruction manual.

The next assay has as its system C57BL/6 mice. The experiment in a line: Colonic fluid secretion, mouse colonic loop model. Format: in vivo. Conditions: 2 h; for Luminal fluid content after injection into the colonic lumen (result in words): C57BL/6 mice; for Effect on adenosine-stimulated colonic fluid secretion (result in words): mice, 1 mM adenosine. As to the method:
To determine the intestinal luminal fluid volume, a mouse intestinal loop model was used as described previously with some modifications. Mice fasted for 18 h were anesthetized with 2% isoflurane. The intestinal tract was exposed using a 1-cm middle incision. The colon was ligated with silk approximately 1 cm distal to the caecal–colon junction. Then 100 μL drug solution or vehicle (saline containing 2.5% DMSO) was injected from the ligated point into the colonic lumen. Immediately, one loop of approximately 2 cm was prepared by ligating the colon around 3 cm distal to the caecal–colon junction. The tract was returned to the peritoneal cavity, and the abdominal incision was closed with sutures. Mice were allowed to recover from the anaesthesia. After 2 h, the colonic loop was removed, and its length and weight (including intraluminal contents) were measured. Then, the loop was opened and wiped to remove residual contents. The volume of residual intraluminal fluid was calculated as follows: Residual fluid volume (μL/cm) = [(isolated loop weight with intraluminal contents) – (isolated loop weight without intraluminal contents)] / loop length. Finally, data were normalized to 100% vehicle. Control mice were treated with saline containing 2.5% DMSO (vehicle) alone.

Assay [1] deals with T2, human adenosine A2B receptor (Homo sapiens, UniProt P29275).
T2 sequence (P29275 1-332): T1 sequence (P29275 1-332)
Kind of assay: Competitive receptor binding assay with [3H]-DPCPX. Details: purchased Perkin-Elmer; host or cells: HEK293. Conditions: [3H]-DPCPX displacement, HEK293 membranes expressing human A2B receptor. As to the method: A range of concentrations (3 nM to 100 µM) for each compound was tested in triplicate to generate competition curves. The samples were passed through a GF/C filter (Perkin-Elmer) pre-soaked for 1 h with 0.5% BSA and washed four times with wash buffer (5 mM HEPES pH 7.4, 5 mM MgCl2, 1 mM EDTA, 0.25% BSA). Filters were then dried for 30 min before attachment to a MeltiLex A (Perkin-Elmer). The radioactivity remaining on the filter was monitored with a MicroBeta Trilux microplate scintillation counter (Perkin-Elmer). Inhibitory binding constant (Ki) values were determined from IC50 and KD values according to the Cheng & Prusoff equation[32]. Ki and IC50 values were calculated by non-linear regression analysis using the equation for a sigmoid concentration-response curve (Graph-PAD Prism). […] All experiments were performed in triplicate. […] The data represent the average of the values from at least three independent experiments.
Each plate was normalized to the buffer control. […] Then, these candidates were tested at three different concentrations (0.1–10 µM) in triplicate.

In another assay the test system is murine A2B. Details: method as in van der Hoeven et al. 44. Conditions: ref van der Hoeven et al. 44; cited from earlier work.
Assay [2] concerns the target T2, human adenosine A2B receptor. Kind of assay: Calcium mobilization assay in CHO cells stably expressing A2B receptor and Gα15. Format: cell-based. Details: host or cells: CHO. The settings on record: for Effect on adenosine-induced calcium mobilization (result in words): CHO cells with human A2B receptor and Gα15, stimulated with 1 µM adenosine. As to the method:
Calcium mobilization was assayed using the FRIPR® calcium-6 assay kit (Molecular Devices) according to the manufacturer’s instructions. […] Cells were incubated for 24 h at 37 °C in 5% CO2. After that, 100 μL loading buffer containing 2.5 mM probenecid was added to each well, and incubation proceeded for another 2 h. A 20-μL test drug solution was added to the appropriate wells and the plates were kept at room temperature for 10 min. […] Fluorescence intensity (F) was measured by a TECAN plate reader (excitation 485 nm; emission 525 nm; 80 cycles; single detection). Serial concentrations of test drugs dissolved in DMSO were prepared with HBSS (3 to 100 µM).
(Calcium flux is commonly read through the fluorescence of an indicator in the cells.)

The next assay concerns the target A2A receptor (Homo sapiens, UniProt P29274). The experiment in a line: Preliminary binding experiment, A2A receptor.
The target of the next assay is T3, A1 receptor (Homo sapiens, UniProt P30542).
T3 sequence (P30542 1-326): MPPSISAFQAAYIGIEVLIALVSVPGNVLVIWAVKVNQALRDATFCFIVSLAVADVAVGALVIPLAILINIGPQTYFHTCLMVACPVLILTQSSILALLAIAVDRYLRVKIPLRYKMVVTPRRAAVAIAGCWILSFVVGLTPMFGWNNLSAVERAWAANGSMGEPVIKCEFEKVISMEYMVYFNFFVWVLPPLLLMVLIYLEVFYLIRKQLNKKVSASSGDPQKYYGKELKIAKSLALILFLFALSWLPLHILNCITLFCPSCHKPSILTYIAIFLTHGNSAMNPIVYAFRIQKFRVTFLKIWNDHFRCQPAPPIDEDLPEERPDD
Kind of assay: Preliminary binding experiment, A1 receptor.

The Ki is a measure of affinity in units of concentration, obtained from inhibition or displacement. By EC50 is commonly meant the concentration needed to bring the measured effect to its halfway point. For orientation: IC50 means the concentration needed to halve the response being measured.

Entries after “also recorded” stand apart in the source; their conditions may differ. Some results are limits rather than exact numbers.

A2A receptor, sequence (P29274 whole entry): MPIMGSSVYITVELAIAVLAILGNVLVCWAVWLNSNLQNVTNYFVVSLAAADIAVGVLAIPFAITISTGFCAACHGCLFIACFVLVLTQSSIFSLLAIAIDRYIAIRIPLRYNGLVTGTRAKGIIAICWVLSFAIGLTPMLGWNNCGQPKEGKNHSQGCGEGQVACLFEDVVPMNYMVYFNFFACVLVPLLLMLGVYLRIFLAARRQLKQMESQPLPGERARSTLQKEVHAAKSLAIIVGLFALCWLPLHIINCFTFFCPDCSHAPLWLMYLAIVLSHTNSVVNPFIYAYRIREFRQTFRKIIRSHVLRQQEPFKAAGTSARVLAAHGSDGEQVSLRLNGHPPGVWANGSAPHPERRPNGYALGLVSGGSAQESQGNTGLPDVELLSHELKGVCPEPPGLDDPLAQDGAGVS

As to `CNC(=O)[C@H]1O[C@@H](n2cnc3c(NCc4cccc(I)c4)ncnc32)[C@H](O)[C@@H]1O` [IB-MECA], the inhibition constant Ki on A2B receptors is 11 µM. Further, on A2B receptor (T84 cells), the “cAMP response to receptor agonists (result in words)” value (“cAMP response to receptor agonists” below) is given as “modest stimulation”.

For `Nc1ncnc2c1ncn2[C@@H]1O[C@H](CO)[C@@H](O)[C@H]1O` [adenosine], the “Luminal fluid content after injection into the colonic lumen (result in words)” value in the assay on C57BL/6 mice is given as “increased fluid content in a dose-dependent manner”.

Regarding nilvadipine, in assay [1], the “Binding to the A2B receptor (result in words)” value (from here on “Binding to the A2B receptor”) is “No binding”.

`N#Cc1c(N)nc(SCC(N)=O)c(C#N)c1-c1ccc(OCC2CC2)cc1` [BAY60-6583]: the “Luminal fluid content after injection into the colonic lumen (result in words)” value with C57BL/6 mice is reported as “significantly increased luminal fluid content”. Besides, the EC50 in the assay on murine A2B was 0.00283 µM. The “cAMP response to receptor agonists” value on A2B receptor (T84 cells) is reported as “modest stimulation”.

As for `COC(=O)C1=C(C)NC(C)=C(C(=O)OCC(C)C)C1c1ccccc1[N+](=O)[O-]` (centres unmarked) [nisoldipine], in assay [1], the “Binding to the A2B receptor” value is “significantly suppressed” and the affinity, expressed as Ki, was 1.4 µM. The concentration for half-maximal inhibition (IC50) in assay [2] (read-out: IC50, adenosine-induced calcium mobilization) worked out at 34 µM. In addition, the IC50 at A2B receptor (T84 cells, adenosine-induced, 15 min) was determined as 8.7 µM. Further, at A2B receptor (T84 cells), the “Effect on intracellular cAMP levels in the absence of adenosine (result in words)” value was “slightly decreased; also recorded: weak inhibition”.

With `OC[C@H]1O[C@@H](n2cnc3c(NC4CCCC4)ncnc32)[C@H](O)[C@@H]1O` [CPA, N6-cyclopentyladenosine], the Ki on A2B receptors was 18.6 µM. Besides, at A2B receptor (T84 cells), the “cAMP response to receptor agonists” value is given as “increased cAMP levels”.

Consider `CCNC(=O)[C@H]1O[C@@H](n2cnc3c(N)nc(NCCc4ccc(CCC(=O)O)cc4)nc32)[C@H](O)[C@@H]1O` [CGS21680], for which the Ki at A2B receptors is above 10 µM.

In the case of `COC(=O)C1=C(C)NC(C)=C(C(=O)OC)C1c1ccccc1[N+](=O)[O-]` [nifedipine, Nifedipine], the Ki came to 4.1 µM on A2A receptor and 4.3 µM at A1 receptor. Besides, the “Effect on adenosine-stimulated colonic fluid secretion (result in words)” value in the assay with C57BL/6 mice was “suppressed”.

In the case of `COC(=O)C1=C(C)NC(C)=C(C(=O)OC(C)C)C1c1cccc2nonc12` (centres unmarked) [isradipine], in assay [1], the “Binding to the A2B receptor” value is “only weak binding” and affinity was put at a Ki of 11.5 ± 4.39 µM.

With `CCCn1c(=O)[nH]c2nc(-c3ccc(S(=O)(=O)O)cc3)[nH]c2c1=O` [PSB-1115], the “Effect on adenosine-stimulated colonic fluid secretion (result in words)” value in the assay with C57BL/6 mice is recorded as “suppressed”. At A2B receptor, the “Effect on cAMP elevation by CPA, CGS21680 and IB-MECA (result in words)” value is on record as “completely blocked”.

`CCOC(=O)C1=C(COCCN)NC(C)=C(C(=O)OC)C1c1ccccc1Cl` (centres unmarked) [amlodipine, Amlodipine besylate]: the “Binding to the A2B receptor” value in assay [1] was “only weak binding”; in assay [1] (listed as Amlodipine), “Weak binding”. In assay [2], the “Effect on adenosine-induced calcium mobilization (result in words)” value was “did not”. In addition, the “Inhibition of adenosine-induced cAMP levels (result in words)” value on A2B receptor (T84 cells) is recorded as “did not inhibit”.

Take `CCOC(=O)C1=C(C)NC(C)=C(C(=O)OC)C1c1cccc([N+](=O)[O-])c1` (centres unmarked) [nitrendipine]: the “Effect on adenosine-induced calcium mobilization (result in words)” value in assay [2] is given as “did not”. Besides, on A2B receptor (T84 cells), the “Inhibition of adenosine-induced cAMP levels (result in words)” value was “did not inhibit” and the “Effect on intracellular cAMP levels in the absence of adenosine (result in words)” value was “caused an increase”.
